Experimental data from US20250059159A1, “PLPRO INHIBITORS” (SHANGHAI SYNERGY PHARMACEUTICAL SCIENCES CO., LTD., priority 2021, published 2025).

Target: SARS-CoV-2 PLpro (Severe acute respiratory syndrome coronavirus 2 (2019-nCoV) (SARS-CoV-2), UniProt P0DTD1)
Assay: PLpro enzymatic inhibition assay (IC50 value determination)
Assay type: biochemical
Conditions: 60 min preincubation for covalent inhibitors, 10 min for non-covalent, read-out: Inhibition of SARS-CoV-2 PLpro IC50 range

Row | Structure (SMILES) | IC50 [nM]
1 | C#CCCNC(=O)CNC(=O)CN(C1CCN([C@H](C)c2cccc3ccccc23)CC1)S(C)(=O)=O [Compound 127, (R)—N-(but-3-yn-1-yl)-2-(2-(N-(1-(1-(naphthalen-1-yl)ethyl)piperidin-4-yl)methylsulfonamido)acetamido)acetamide] | 100 to 1000
2 | COC(=O)/C=C/CNC(=O)CNC(=O)CN(C(=O)C1CCCCC1)C1CCN([C@H](C)c2cccc3ccccc23)CC1 [Compound 11, methyl (R,E)-4-(2-(2-(N-(1-(1-(naphthalen-1-yl)ethyl)piperidin-4-yl)cyclohexanecarboxamido)acetamido)acetamido)but-2-enoate] | 100 to 1000
3 | C[C@H](c1cccc2ccccc12)N1CCC(N(CC(=O)NCC(=O)NC/C=C/S(C)(=O)=O)S(C)(=O)=O)CC1 [Compound 59, (R,E)-N-(3-(methylsulfonyl)allyl)-2-(2-(N-(1-(1-(naphthalen-1-yl)ethyl)piperidin-4-yl)methylsulfonamido)acetamido)acetamide] | 100 to 1000
4 | C#CCNC(=O)CNC(=O)CN(C1CCN(C(C)c2cccc3ccc(Cl)cc23)CC1)S(C)(=O)=O (stereo not drawn) [Compound 84, 2-(N-(1-(1-(7-chloronaphthalen-1-yl)ethyl)piperidin-4-yl)methylsulfonamido)-N-(2-oxo-2-(prop-2-yn-1-ylamino)ethyl)acetamide] | < 100
5 | COC(=O)/C=C/CNC(=O)CNC(=O)CNC1CCN([C@H](C)c2cccc3ccccc23)CC1 [Compound 24, methyl (R,E)-4-(2-(2-((1-(1-(naphthalen-1-yl)ethyl)piperidin-4-yl)amino)acetamido)acetamido)but-2-enoate] | 100 to 1000
6 | C#CCNC(=O)CNC(=O)CN(C1CCN(C(C)c2ccc(OC)c3ccccc23)CC1)S(C)(=O)=O (stereo not drawn) [Compound 96, 2-(N-(1-(1-(4-methoxynaphthalen-1-yl)ethyl)piperidin-4-yl)methylsulfonamido)-N-(2-oxo-2-(prop-2-yn-1-ylamino)ethyl)acetamide] | < 100
7 | COC(=O)/C=C/CNC(=O)CNC(=O)CN(C(C)=O)C1CCN(C(C)c2cccc3ccccc23)CC1 (stereo not drawn) [Compound 13, methyl (E)-4-(2-(2-(N-(1-(1-(naphthalen-1-yl)ethyl)piperidin-4-yl)acetamido)acetamido)acetamido)but-2-enoate] | < 100
8 | COC(=O)/C=C/CNC(=O)CNC(=O)CN(C(=O)Cc1ccc2c(c1)OCO2)C1CCN(C(C)c2cccc3ccccc23)CC1 (stereo not drawn) [Compound 1, methyl (E)-4-(2-(2-(2-(benzo[d][1,3]dioxol-5-yl)-N-(1-(1-(naphthalen-1-yl)ethyl)piperidin-4-yl)acetamido)acetamido)acetamido)but-2-enoate] | 100 to 1000
9 | C#CCNC(=O)CNC(=O)CN(C1CCN(C(c2cccc3ccccc23)C(F)F)CC1)S(C)(=O)=O (stereo not drawn) [Compound 148, 2-(N-(1-(2,2-difluoro-1-(naphthalen-1-yl)ethyl)piperidin-4-yl)methylsulfonamido)-N-(2-oxo-2-(prop-2-yn-1-ylamino)ethyl)acetamide] | 1000 to 10000
10 | C#CCNC(=O)CNC(=O)CN(C1CCN(C(CC)c2cccc3ccccc23)CC1)S(C)(=O)=O (stereo not drawn) [Compound 103, 2-(N-(1-(1-(naphthalen-1-yl)propyl)piperidin-4-yl)methylsulfonamido)-N-(2-oxo-2-(prop-2-yn-1-ylamino)ethyl)acetamide] | 100 to 1000
11 | C#CCNC(=O)CNC(=O)CN(C1CCN(c2nc3cc(Cl)ccc3s2)CC1)S(C)(=O)=O [Compound 126, 2-(N-(1-(5-chlorobenzo[d]thiazol-2-yl)piperidin-4-yl)methylsulfonamido)-N-(2-oxo-2-(prop-2-yn-1-ylamino)ethyl)acetamide] | 1000 to 10000
12 | CCCC(=O)N(CC(=O)NCC(=O)NC/C=C/C(=O)OC)C1CCN([C@H](C)c2cccc3ccccc23)CC1 [Compound 18, methyl (R,E)-4-(2-(2-(N-(1-(1-(naphthalen-1-yl)ethyl)piperidin-4-yl)butyramido)acetamido)acetamido)but-2-enoate] | < 100
